Test results as given in ChEMBL document CHEMBL3045519, “Selective Herbicidal Activity of 3, 5-Dichloropyridyloxy-phenoxypropionamidoxyacetic Acid Derivatives between Wheat and Wild Oat” (J Pestic Sci, 1996).
The source made the active and inactive calls. The calls are words filed in the database; no cut-off is given here.

Legend:
[1] = test system: Avena fatua; assay: Post-emergence herbicidal activity against Avena fatua under greenhouse conditions at 2.5 g/a at 1.5-leaf stage measured after 3 weeks by pot test; type: functional, organism-based
[2] = test system: Triticum aestivum; assay: Phytotoxicity against Triticum aestivum (wheat) under greenhouse conditions at 2.5 g/a at 1.5-leaf stage measured after 3 weeks by pot test; type: organism-based; settings: in vivo, 504 h
[3] = test system: Avena fatua; assay: Post-emergence herbicidal activity against Avena fatua under greenhouse conditions at 1.3 g/a at 1.5-leaf stage measured after 3 weeks by pot test; type: functional, organism-based
[4] = test system: Triticum aestivum; assay: Phytotoxicity against Triticum aestivum (wheat) under greenhouse conditions at 0.3 g/a at 1.5-leaf stage measured after 3 weeks by pot test; type: organism-based; settings: in vivo, 504 h
[5] = test system: Triticum aestivum; assay: Phytotoxicity against Triticum aestivum (wheat) under greenhouse conditions at 1.3 g/a at 1.5-leaf stage measured after 3 weeks by pot test; type: organism-based; settings: in vivo, 504 h
[6] = test system: Avena fatua; assay: Post-emergence herbicidal activity against Avena fatua under greenhouse conditions at 0.6 g/a at 1.5-leaf stage measured after 3 weeks by pot test; type: functional, organism-based
[7] = test system: Avena fatua; assay: Post-emergence herbicidal activity against Avena fatua under greenhouse conditions at 0.3 g/a at 1.5-leaf stage measured after 3 weeks by pot test; type: functional, organism-based
[8] = test system: Triticum aestivum; assay: Phytotoxicity against Triticum aestivum (wheat) under greenhouse conditions at 0.6 g/a at 1.5-leaf stage measured after 3 weeks by pot test; type: organism-based; settings: in vivo, 504 h

For CC(Oc1ccc(Oc2ncc(Cl)cc2Cl)cc1)C(=O)N(C)OCC(=O)O (stereo unspecified), which Activity [1] is on record?
Its Activity is “Active”.

What about the Activity [2] of the same compound?
The Activity was “Non-toxic”.

And the Activity [3]?
Its Activity is “Active”.

And the Activity [4]?
The Activity was “Non-toxic”.

And the Activity [5]?
Its Activity is “Non-toxic”.

And the Activity [6]?
The Activity was “inactive”.

And the Activity [7]?
The Activity was “inactive”.

What about the Activity [8] of the same compound?
Its Activity is “Non-toxic”.

What does the source list for CC(Oc1ccc(Oc2ncc(Cl)cc2Cl)cc1)C(=O)NCCC(=O)O (stereo unspecified)?
Activity [1]: Active; Activity [2]: Non-toxic; Activity [3]: Active; Activity [4]: Non-toxic; Activity [5]: Non-toxic; Activity [6]: inactive; Activity [7]: inactive; Activity [8]: Non-toxic

Which Activity [1] does the source give for O=C(O)CONC(=O)COc1ccc(Oc2ncc(Cl)cc2Cl)cc1 here?
Its Activity is “inactive”.

And the Activity [2]?
The Activity was “Non-toxic”.

And the Activity [3]?
The Activity was “inactive”.

What about the Activity [4] of the same compound?
Its Activity is “Non-toxic”.

And the Activity [5]?
The Activity was “Non-toxic”.

And the Activity [6]?
The Activity was “inactive”.

And the Activity [7]?
Its Activity is “inactive”.

What about the Activity [8] of the same compound?
The Activity was “Non-toxic”.

Which results are given for COC(=O)CNC(=O)C(C)Oc1ccc(Oc2ncc(Cl)cc2Cl)cc1 (stereo unspecified)?
Activity [1]: Active; Activity [2]: Non-toxic; Activity [3]: Active; Activity [4]: Non-toxic; Activity [5]: Non-toxic; Activity [6]: Active; Activity [7]: Active; Activity [8]: Non-toxic

With CC(Oc1ccc(Oc2ncc(Cl)cc2Cl)cc1)C(=O)NOCC(=O)O (stereo unspecified) as the compound, how does the Activity [1] read?
The Activity was “Active”.

And the Activity [2]?
Its Activity is “Non-toxic”.

And the Activity [3]?
Its Activity is “inactive”.

What about the Activity [4] of the same compound?
Its Activity is “Non-toxic”.

And the Activity [5]?
The Activity was “Non-toxic”.

And the Activity [6]?
The Activity was “Active”.

What about the Activity [7] of the same compound?
Its Activity is “Active”.

And the Activity [8]?
Its Activity is “Non-toxic”.

Which results are given for CNC(=O)C(C)Oc1ccc(Oc2ncc(Cl)cc2Cl)cc1 (stereo unspecified)?
Activity [1]: inactive; Activity [2]: Non-toxic; Activity [3]: inactive; Activity [4]: Non-toxic; Activity [5]: Non-toxic; Activity [6]: inactive; Activity [7]: inactive; Activity [8]: Non-toxic

With CC(Oc1ccc(Oc2ccc(C(F)(F)F)cn2)cc1)C(=O)O (stereo unspecified) [FLUAZIFOP] as the compound, how does the Activity [1] read?
Its Activity is “Active”.

And the Activity [2]?
Its Activity is “Toxic”.

What about the Activity [3] of the same compound?
Its Activity is “Active”.

What about the Activity [4] of the same compound?
Its Activity is “Toxic”.

What about the Activity [5] of the same compound?
Its Activity is “Toxic”.

And the Activity [6]?
The Activity was “Active”.

And the Activity [7]?
Its Activity is “Active”.

And the Activity [8]?
Its Activity is “Toxic”.

Which Activity [1] does the source give for CNC(=O)CNC(=O)C(C)Oc1ccc(Oc2ncc(Cl)cc2Cl)cc1 (stereo unspecified) here?
The Activity was “Active”.

What about the Activity [2] of the same compound?
Its Activity is “Non-toxic”.

What about the Activity [3] of the same compound?
The Activity was “Active”.

And the Activity [4]?
Its Activity is “Non-toxic”.

What about the Activity [5] of the same compound?
The Activity was “Non-toxic”.

And the Activity [6]?
Its Activity is “Active”.

And the Activity [7]?
The Activity was “Active”.

What about the Activity [8] of the same compound?
The Activity was “Non-toxic”.

Which results are given for CCOC(=O)CNC(=O)C(C)Oc1ccc(Oc2ncc(Cl)cc2Cl)cc1 (stereo unspecified)?
Activity [1]: Active; Activity [2]: Toxic; Activity [3]: Active; Activity [4]: Non-toxic; Activity [5]: Non-toxic; Activity [6]: Active; Activity [7]: Active; Activity [8]: Non-toxic

CC(Oc1ccc(Oc2cnc3cc(Cl)ccc3n2)cc1)C(=O)O (stereo unspecified) [QUIZALOFOP] was tested. Which Activity [1] did it give?
Its Activity is “Active”.

What about the Activity [2] of the same compound?
Its Activity is “Toxic”.

What about the Activity [3] of the same compound?
Its Activity is “Active”.

What about the Activity [4] of the same compound?
The Activity was “Toxic”.

What about the Activity [5] of the same compound?
The Activity was “Toxic”.

And the Activity [6]?
The Activity was “Active”.

And the Activity [7]?
Its Activity is “Active”.

What about the Activity [8] of the same compound?
The Activity was “Toxic”.

Which Activity [1] does the source give for CCOC(=O)C(C)Oc1ccc(Oc2ncc(Cl)cc2Cl)cc1 (stereo unspecified) here?
The Activity was “Active”.

And the Activity [2]?
The Activity was “Toxic”.

And the Activity [3]?
The Activity was “Active”.

And the Activity [4]?
Its Activity is “Toxic”.

And the Activity [5]?
The Activity was “Toxic”.

And the Activity [6]?
The Activity was “Active”.

And the Activity [7]?
The Activity was “Active”.

What about the Activity [8] of the same compound?
Its Activity is “Toxic”.

What does the source list for CC(Oc1ccc(Oc2cnc3cc(Cl)ccc3n2)cc1)C(=O)NOCC(=O)O (stereo unspecified)?
Activity [1]: Active; Activity [2]: Toxic; Activity [3]: Active; Activity [4]: Toxic; Activity [5]: Toxic; Activity [6]: Active; Activity [7]: Active; Activity [8]: Toxic
